According to patent US20150239890A1, “CRYSTAL OF N-[2-(AMINO)-2-METHYLPROPYL]-2-METHYLPYRAZOLO[1,5-A]PYRIMIDINE-6-CARBOXAMIDE” (SANWA KAGAKU KENKYUSHO CO., LTD., priority 2012, published 2015):
Read-outs that look alike come from different tables or passages of the source.

Legend:
Assay type in all cases: physicochemical
[1] = Hygroscopicity test in condition of 66% RH (20° C.)
Protocol: Each test sample of an amorphous compound 1 prepared in a modification method, an amorphous compound 2 obtained by forming a free base of the amorphous compound 1 into hydrochloride in the same method as in Example 1 of Patent Literature 1, a crystal of the compound 1, which was prepared by the method described in Example 1 of the present specification, was charged into a desiccator at a humidity of 66% RH that was prepared by an aqueous saturated sodium nitrite solution by each amount of 100 mg and left stood at 20° C. Change in weights of each test sample was measured with time and a weight increase ratio was calculated.

[2] = Stability test in (sealed) condition at 60° C., purity by HPLC; details: for Purity (60° C., sealed) After 4 weeks: sealed brown glass bottle; for Purity (60° C., sealed) Initial stage value: before storage
Protocol: Each test sample of an amorphous compound 1 prepared by a modification method, an amorphous compound 2 obtained by forming a free base of the amorphous compound 1 into hydrochloride in the same method as in Example 1 of Patent Literature 1, a crystal of the compound 1, which was prepared by the method described in Example 1 of the present specification, was charged into a brown glass bottle by each amount of 10 mg and preserved at 60° C., and the purities were compared after 4 weeks. […] Not that the purity measurement was carried out in the following conditions.
Column: Develosil CN-5 (Nomura Chemical), 250 mm×4.6 mmφ
Mobile phase: 20 mM NaH2PO4 buffer (pH 6.9)/MeCN=80/20
Wavelength: UV 247 nm and 220 nm
Concentration of test sample: 100 μg/ml (H2O)

[3] = Solubility of the crystal in water; details: for solubility: 20 °C, thermodynamic from solid
Protocol: 1. The crystal has peaks around at 9.8°, 17.4°, 18.6°, 25.3°, and 25.8° as diffraction angles represented by 2θ in the powder X-ray diffraction pattern. 2. The crystal has absorption recognized around at wave numbers of 3340 cm^−1, 1664 cm^−1, and 1654 cm^−1 in the infrared absorption spectrum. 3. The crystal has a heat adsorption peak around at 120° C. in the differential scanning calorimetry (DSC). 4. The crystal has a degree of solubility to water of 1 g/ml or higher and the solubility is classified into “very soluble” according to the Japanese Pharmacopoeia.
Solubility (20° C.): >1 g/ml (very soluble)

[4] = 66% RH, 20° C., after 7 days, listed as amorphous compound 1
[5] = 66% RH, 20° C., after 7 days, listed as crystal of the compound 1

Weight increase ratio (66% RH, 20° C.) After 7 days ([1]; 66% RH, 20° C., after 7 days) [%] | purity After 7 days (66% RH, 20° C.) ([1]; 66% RH, 20° C., after 7 days) [%] | Weight increase ratio (66% RH, 20° C.) Initial stage value [1] | purity, Initial stage value (66% RH, 20° C. test) [1] [%] | Purity (60° C., sealed) After 4 weeks ([2]; 60° C., after 4 weeks) [%] | impurity / area value of an impurity peak, initial stage [2] | Purity (60° C., sealed) Initial stage value [2] [%] | SMILES | other results
1.7 | 99.8 | 0 | 100.0 | 99.4 | not observed to contain an impurity | 100.0 | Cc1cc2ncc(C(=O)NCC(C)(C)NCC(=O)N3CCC[C@H]3C#N)cn2n1 [Amorphous compound 1, N-[2-({2-[(2S)-2-cyanopyrrolidine-1-yl]-2-oxoethyl}amino)-2-methylpropyl]-2-methylpyrazolo[1,5-a]pyrimidine-6-carboxamide] | Weight increase ratio (66% RH, 20° C.) After 7 days [1, 4]: 1.7%; purity After 7 days (66% RH, 20° C.) [1, 4]: 99.8%; Purity (60° C., sealed) After 4 weeks ([2]; 60° C., after 4 weeks, listed as amorphous compound 1): 99.4%
1.7 | 90.5 | 0 | 97.9 | 96.1 | 0.6% | 98.8 | Cc1cc2ncc(C(=O)NCC(C)(C)NCC(=O)N3CCC[C@H]3C#N)cn2n1 [Amorphous compound 2] | Purity (60° C., sealed) After 4 weeks ([2]; 60° C., after 4 weeks, listed as amorphous compound 2): 96.1%; area value of an impurity peak after 4 weeks ([2]; 60° C., sealed, after 4 weeks): 3.1%; Purity (60° C., sealed) Initial stage value ([2]; listed as amorphous compound 2): 98.8%
0.01 | 100.0 | 0 | 100.0 | 100.0 | not observed to contain an impurity | 100.0 | Cc1cc2ncc(C(=O)NCC(C)(C)NCC(=O)N3CCC[C@H]3C#N)cn2n1 [Crystal of compound 1, N-[2-({2-[(2S)-2-cyanopyrrolidine-1-yl]-2-oxoethyl}amino)-2-methylpropyl]-2-methylpyrazolo[1,5-a]pyrimidine-6-carboxamide] | Solubility (20° C.) class ([3]; 20° C.): very soluble; solubility class according to the Japanese Pharmacopoeia ([3]; water): very soluble; solubility ([3]; water, water, 20° C., read-out: Solubility (20° C.)): > 1000 mg/mL; solubility ([3]; water, water, water, read-out: degree of solubility to water): ≥ 1000 mg/mL; hygroscopicity (in words) ([1]; 66% RH, 20° C., after 7 days): hygroscopicity was not observed; Weight increase ratio (66% RH, 20° C.) After 7 days [1, 5]: 0.01%; purity After 7 days (66% RH, 20° C.) [1, 5]: change in the purity was also not recognized; Purity (60° C., sealed) After 4 weeks ([2]; 60° C., after 4 weeks, listed as crystal of the compound 1): not changed
